Measurements: ChEMBL document CHEMBL4396913, “Synthesis and biological evaluation of hybrid quinolone-based quaternary ammonium antibacterial agents” (Eur J Med Chem, 2019)
In brackets after ≈: the same amount, converted by molar mass.

Columns and labels:
Pseudomonas aeruginosa [1] = experiment: Antibacterial activity against Pseudomonas aeruginosa ATCC 9027 cultured in MH medium assessed as reduction in bacterial growth incubated for 48 hrs by microbroth dilution method; type: functional; details: ATCC 9027, 48 h
Staphylococcus aureus [2] = experiment: Bactericidal activity against Staphylococcus aureus ATCC 6538 cultured in MH medium assessed as reduction in bacterial survival incubated for 48 hrs by microbroth dilution method; type: functional; details: ATCC 6538, 48 h
Proteus vulgaris [3] = experiment: Resistance index, ratio of MIC for Proteus vulgaris NCTC 4635 measured after 5 dilution steps to MIC for Proteus vulgaris NCTC 4635 measured after 48 hrs incubation by microbroth dilution method; type: functional
Staphylococcus aureus [4] = experiment: Antibacterial activity against Staphylococcus aureus ATCC 6538 cultured in MH medium assessed as reduction in bacterial growth incubated for 48 hrs by microbroth dilution method; type: functional; details: ATCC 6538, 48 h
[5] = tested on: Staphylococcus epidermidis; experiment: Bactericidal activity against methicillin resistant Staphylococcus epidermidis ATCC 13199 cultured in MH medium assessed as reduction in bacterial survival incubated for 48 hrs by microbroth dilution method; type: functional; details: ATCC 13199, 48 h
Proteus vulgaris [6] = experiment: Bactericidal activity against Proteus vulgaris NCTC 4635 cultured in MH medium assessed as reduction in bacterial survival incubated for 48 hrs by microbroth dilution method; type: functional; details: NCTC 4635, 48 h
[7] = tested on: Staphylococcus epidermidis; experiment: Bactericidal activity against Staphylococcus epidermidis ATCC 14990 cultured in MH medium assessed as reduction in bacterial survival incubated for 48 hrs by microbroth dilution method; type: functional; details: ATCC 14990, 48 h
Escherichia coli [8] = experiment: Antibacterial activity against Escherichia coli ATCC 8739 cultured in MH medium assessed as reduction in bacterial growth incubated for 48 hrs by microbroth dilution method; type: functional; details: ATCC 8739, 48 h
Streptococcus pneumoniae [9] = experiment: Bactericidal activity against Streptococcus pneumoniae cultured in MH medium assessed as reduction in bacterial survival incubated for 48 hrs by microbroth dilution method; type: functional
Bacillus spizizenii [10] = experiment: Antibacterial activity against Bacillus subtilis ATCC 6633 cultured in MH medium assessed as reduction in bacterial growth incubated for 48 hrs by microbroth dilution method; type: functional; details: ATCC 6633, 48 h
Staphylococcus aureus [11] = experiment: Bactericidal activity against methicillin resistant Staphylococcus aureus 6347 cultured in MH medium assessed as reduction in bacterial survival incubated for 48 hrs by microbroth dilution method; type: functional; details: Staphylococcus aureus, 6347, 48 h
Staphylococcus aureus [12] = experiment: Bactericidal activity against methicillin resistant Staphylococcus aureus N315 cultured in MH medium assessed as reduction in bacterial survival incubated for 48 hrs by microbroth dilution method; type: functional; details: N315, 48 h
Serratia marcescens [13] = experiment: Antibacterial activity against Serratia marcescens ATCC 12795 cultured in MH medium assessed as reduction in bacterial growth incubated for 48 hrs by microbroth dilution method; type: functional; details: ATCC 12795, 48 h
Streptococcus pneumoniae [14] = experiment: Antibacterial activity against Streptococcus pneumoniae cultured in MH medium assessed as reduction in bacterial growth incubated for 48 hrs by microbroth dilution method; type: functional
[15] = tested on: Staphylococcus epidermidis; experiment: Antibacterial activity against Staphylococcus epidermidis ATCC 14990 cultured in MH medium assessed as reduction in bacterial growth incubated for 48 hrs by microbroth dilution method; type: functional; details: ATCC 14990, 48 h
Escherichia coli [16] = experiment: Bactericidal activity against Escherichia coli ATCC 8739 cultured in MH medium assessed as reduction in bacterial survival incubated for 48 hrs by microbroth dilution method; type: functional; details: ATCC 8739, 48 h
Enterococcus hirae [17] = experiment: Bactericidal activity against Enterococcus hirae ATCC 1052 cultured in BHI medium assessed as reduction in bacterial survival incubated for 48 hrs by microbroth dilution method; type: functional; details: ATCC 1052, 48 h
[18] = tested on: Staphylococcus epidermidis; experiment: Antibacterial activity against methicillin resistant Staphylococcus epidermidis ATCC 13199 cultured in MH medium assessed as reduction in bacterial growth incubated for 48 hrs by microbroth dilution method; type: functional; details: ATCC 13199, 48 h
Pseudomonas aeruginosa [19] = experiment: Bactericidal activity against Pseudomonas aeruginosa ATCC 9027 cultured in MH medium assessed as reduction in bacterial survival incubated for 48 hrs by microbroth dilution method; type: functional; details: ATCC 9027, 48 h
Staphylococcus aureus [20] = experiment: Antibacterial activity against methicillin resistant Staphylococcus aureus N315 cultured in MH medium assessed as reduction in bacterial growth incubated for 48 hrs by microbroth dilution method; type: functional; details: N315, 48 h
Bacillus spizizenii [21] = experiment: Bactericidal activity against Bacillus subtilis ATCC 6633 cultured in MH medium assessed as reduction in bacterial survival incubated for 48 hrs by microbroth dilution method; type: functional; details: ATCC 6633, 48 h
[22] = Lipophilicity, log k of the compound at 100 ug/ml by micellar electrokinetic chromatography; type: physicochemical
Staphylococcus aureus [23] = experiment: Antibacterial activity against methicillin resistant Staphylococcus aureus 6347 cultured in MH medium assessed as reduction in bacterial growth incubated for 48 hrs by microbroth dilution method; type: functional; details: Staphylococcus aureus, 6347, 48 h
Proteus vulgaris [24] = experiment: Antibacterial activity against Proteus vulgaris NCTC 4635 cultured in MH medium assessed as reduction in bacterial growth incubated for 48 hrs by microbroth dilution method; type: functional; details: NCTC 4635, 48 h
Enterococcus hirae [25] = experiment: Antibacterial activity against Enterococcus hirae ATCC 1052 cultured in BHI medium assessed as reduction in bacterial growth incubated for 48 hrs by microbroth dilution method; type: functional; details: ATCC 1052, 48 h
Serratia marcescens [26] = experiment: Bactericidal activity against Serratia marcescens ATCC 12795 cultured in MH medium assessed as reduction in bacterial survival incubated for 48 hrs by microbroth dilution method; type: functional; details: ATCC 12795, 48 h

`COc1c(N2CCNC(C)C2)c(F)cc2c(=O)c(C(=O)O)cn(C3CC3)c12` (stereo unspecified) [GATIFLOXACIN] gave an MIC (Pseudomonas aeruginosa [1]) of 0.25 µg/mL (≈ 0.666 µM), an MBC (Staphylococcus aureus [2]) of 0.25 µg/mL (≈ 0.666 µM) and a Ratio (Proteus vulgaris [3]) of 32. For the same compound, the MIC (Staphylococcus aureus [4]) was 0.25 µg/mL (≈ 0.666 µM), the MBC [5] was 0.063 µg/mL (≈ 0.168 µM) and the MBC (Proteus vulgaris [6]) was 0.008 µg/mL (≈ 0.0213 µM). It also gave an MBC [7] of 0.25 µg/mL (≈ 0.666 µM), an MIC (Escherichia coli [8]) of 0.016 µg/mL (≈ 0.0426 µM) and an MBC (Streptococcus pneumoniae [9]) of 256 µg/mL (≈ 682 µM). For the same compound, the MIC (Bacillus spizizenii [10]) was 0.032 µg/mL (≈ 0.0852 µM), the MBC (Staphylococcus aureus [11]) was 0.125 µg/mL (≈ 0.333 µM) and the MBC (Staphylococcus aureus [12]) was 0.125 µg/mL (≈ 0.333 µM). The MIC (Serratia marcescens [13]) was 0.25 µg/mL (≈ 0.666 µM), the MIC (Streptococcus pneumoniae [14]) was 1 µg/mL (≈ 2.66 µM) and the MIC [15] was 0.125 µg/mL (≈ 0.333 µM). For the same compound, the MBC (Escherichia coli [16]) was 0.032 µg/mL (≈ 0.0852 µM), the MBC (Enterococcus hirae [17]) was 16 µg/mL (≈ 42.6 µM) and the MIC [18] was 0.063 µg/mL (≈ 0.168 µM). It also gave an MBC (Pseudomonas aeruginosa [19]) of 0.25 µg/mL (≈ 0.666 µM), an MIC (Staphylococcus aureus [20]) of 0.125 µg/mL (≈ 0.333 µM) and an MBC (Bacillus spizizenii [21]) of 0.063 µg/mL (≈ 0.168 µM). The “log K” value [22] was 0.101, the MIC (Staphylococcus aureus [23]) was 0.125 µg/mL (≈ 0.333 µM) and the MIC (Proteus vulgaris [24]) was 0.008 µg/mL (≈ 0.0213 µM). The MIC (Enterococcus hirae [25]) was 8 µg/mL (≈ 21.3 µM) and the MBC (Serratia marcescens [26]) was 0.5 µg/mL (≈ 1.33 µM).
